Laboratory results: PMC5762859, “Distribution analysis of epertinib in brain metastasis of HER2-positive breast cancer by imaging mass spectrometry and prospect for antitumor activity” (Scientific Reports, 2018)

Columns and labels:
[1] = test system: albumin and α-1 acid glycoprotein; design: method as in PMID 25547867; conditions: cited from earlier work
MDA-MB-361 cell line = assay: In vitro growth inhibition of parental cell line; assay type: cell-based; conditions: Homo sapiens
Source text: (§1) We evaluated the inhibitory activity of epertinib on the in vitro growth of the parental cell line, MDA-MB-361. […] To compare the growth inhibitory activity of epertinib on the parental and metastatic (BR2) cell lines, we evaluated the antitumor activity of epertinib in both cell lines. […] To confirm the antitumor activity of epertinib in the IVM, we examined the effect of epertinib on the IVM transplanted BR2.

[2] = test system: experimental brain metastasis of HER2-positive breast cancer (IVM); assay: Antitumor activity in the breast cancer IVM (bioluminescence); assay type: in vivo, mice; conditions: once daily oral 50 mg/kg, 30 days, photons emitted from tumor
Source text: as §1
Figure 6 In vivo antitumor activity of epertinib in the breast cancer IVM. Epertinib inhibits the growth of breast cancer in animal models. In each animal model, vehicle or indicated doses of epertinib were orally administered daily. Tumor volume was measured twice or thrice weekly and the mean tumor volume with SD is represented by each data point. Human breast cancer cells, MDA-MB-361 (A) or MDA-MB-361-luc-BR2 (B) was implanted orthotopically into the mammary fat pad of mice. Tumor-bearing mice were treated for 28 days (A and B). Tumor growth in the breast cancer IVM ([…]) was monitored by the photons emitted from the tumor as an indicator, which was measured with an IVIS Imaging System 200 (Caliper Life Sciences). […] The photons were measured once or twice weekly and the mean photons/sec with SD are presented at each data point (n = 3 for vehicle, n = 4 for 50 mg/kg of epertinib) (C). […]

Structure (SMILES) | Binding to albumin and α-1 acid glycoprotein [1] [%] | IC50 (MDA-MB-361 cell line) [nM] | Effect on brain tumor volume [2]
CS(=O)(=O)CCNCc1ccc(-c2ccc3ncnc(Nc4ccc(OCc5cccc(F)c5)c(Cl)c4)c3c2)o1 [Lapatinib, N-{3-chloro-4-[(3-fluorobenzyl)oxy]phenyl}-6-[5-({[2-(methylsulfonyl)ethyl]amino}methyl)-2-furyl]-4-quinazolinamine, reference compound] | > 99.9 |  | 
CC#CC(=NOCC1COCCN1)c1ccc2ncnc(Nc3ccc(OCc4cccc(F)c4)c(Cl)c3)c2c1 (stereo not drawn) [Epertinib] |  | 26.5 | significantly reduced the brain tumor volume
